Experiments:
[1] = target: T1, plain muscle Ca2+ dependency K+ channel (Bos taurus, UniProt Q28204); experiment: Single channel current measurement of plain muscle Ca2+ dependency K+ channel in artificial lipid bilayer membrane; format: biochemical, bovine; conditions: 100 mM KCl, 10 mM Hepes (pH 7.4)
T1 construct: inserting a K^+ channel on the vesicle membrane into the artificial lipid bilayer membrane 2; from tissue; host or cells: bovine tracheal smooth (plain) muscle membrane vesicles
Description: (§1) In the present Example, a current measuring device according to the present invention (FIG. 5) was used. […] In the bottom 9, a small hole 4 whose diameter was 0.15 mm was provided. A square glass plate whose thickness was 0.17 mm and each side was 18 mm was used as the bottom plate 6. Further, an agarose gel layer whose thickness was 100 nm was formed on the bottom plate 6 as the support layer 5 so as to be positioned in a face contacting the upper solution chamber 3. […] In measuring a current, a patch-clamp amplifier (CEZ-2400 produced by Nihon Kohden Corporation) was used, and the measured current was recorded on a DAT tape by using a DAT recorder. […]
Thereafter, lipid solution obtained by dissolving phosphatidylcholine (product of Sigma) in decane so that its concentration was 20 mg/mL was applied to the small hole 4 provided in the bottom 9 of the upper solution chamber 3. […] By using the thus produced current measuring device, a current was measured with time.
Subsequently, only the CaCl2 concentration of the aqueous solution with which the upper solution chamber 3 and the lower solution chamber 8 were filled was changed into 1 mM. Under this condition, a current measuring device was produced in the same manner, and a current was measured.

[2] = target: T2, ryanodine receptor channel (Ca- channel) (Sus scrofa, UniProt A0A5G2R1W3); experiment: Single channel current measurement and fluorescence observation of ryanodine receptor channel in artificial lipid bilayer membrane; format: biochemical, swine; conditions: 1 to 10 nM Cy5-labeled ryanodine added from the upside of the membrane; 500 mM Na-methanesulfonic acid, 40 mM Hepes (pH 7.4), 0.01-0.1 μM Ca2+
T2 construct: a cell membrane vesicle sampled from a swine cardiac muscle; from tissue; host or cells: swine cardiac muscle membrane vesicles
Description: as §1
Thereafter, solution obtained by dissolving phosphatidylcholine in decane so that its concentration was 20 mg/ml was applied to the small hole 4 provided in the bottom 9 of the upper solution chamber 3. […] At this time, the ryanodine receptor channel on the vesicle membrane was fluorescence-labeled with fluorescent dye Cy5 (product of Amensham Pharmacia) in advance, and then the cell membrane vesicle was fused with the artificial lipid bilayer membrane 2. The fluorescence labeling of the ryanodine receptor channel was carried out as follows: a corresponding specific monoclonal antibody was labeled with Cy5, and the thus labeled antibody was coupled with the ryanodine receptor channel. […]

T1 sequence (Q28204 whole entry): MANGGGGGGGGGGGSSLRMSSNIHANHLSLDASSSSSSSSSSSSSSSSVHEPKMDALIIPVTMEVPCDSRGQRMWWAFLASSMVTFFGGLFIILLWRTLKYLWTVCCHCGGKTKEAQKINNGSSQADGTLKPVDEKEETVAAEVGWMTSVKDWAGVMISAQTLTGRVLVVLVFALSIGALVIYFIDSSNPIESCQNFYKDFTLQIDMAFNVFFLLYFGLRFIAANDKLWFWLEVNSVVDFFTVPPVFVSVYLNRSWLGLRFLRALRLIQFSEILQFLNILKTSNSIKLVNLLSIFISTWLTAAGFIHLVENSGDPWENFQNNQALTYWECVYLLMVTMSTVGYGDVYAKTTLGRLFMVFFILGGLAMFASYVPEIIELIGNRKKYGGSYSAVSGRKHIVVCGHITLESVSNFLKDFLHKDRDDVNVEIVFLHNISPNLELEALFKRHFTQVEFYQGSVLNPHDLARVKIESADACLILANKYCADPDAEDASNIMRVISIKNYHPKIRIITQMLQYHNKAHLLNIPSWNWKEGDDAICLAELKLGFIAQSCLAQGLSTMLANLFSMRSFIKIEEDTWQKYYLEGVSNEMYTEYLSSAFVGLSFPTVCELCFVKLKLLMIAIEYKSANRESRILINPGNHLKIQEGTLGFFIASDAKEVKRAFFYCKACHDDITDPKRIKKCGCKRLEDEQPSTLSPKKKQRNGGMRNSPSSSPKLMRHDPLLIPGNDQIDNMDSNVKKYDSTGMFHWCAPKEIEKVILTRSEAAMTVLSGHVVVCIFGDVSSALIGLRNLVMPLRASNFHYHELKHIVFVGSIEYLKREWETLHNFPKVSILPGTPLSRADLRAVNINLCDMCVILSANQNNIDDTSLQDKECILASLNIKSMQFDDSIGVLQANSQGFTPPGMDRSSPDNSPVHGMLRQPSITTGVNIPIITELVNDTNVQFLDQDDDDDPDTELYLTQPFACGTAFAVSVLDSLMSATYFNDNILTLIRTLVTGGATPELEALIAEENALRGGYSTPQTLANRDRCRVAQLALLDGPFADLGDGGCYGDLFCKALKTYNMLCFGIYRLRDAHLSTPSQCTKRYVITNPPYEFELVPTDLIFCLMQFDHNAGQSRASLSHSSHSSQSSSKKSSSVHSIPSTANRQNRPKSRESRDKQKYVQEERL
T1 sequence (Q28067 whole entry partner): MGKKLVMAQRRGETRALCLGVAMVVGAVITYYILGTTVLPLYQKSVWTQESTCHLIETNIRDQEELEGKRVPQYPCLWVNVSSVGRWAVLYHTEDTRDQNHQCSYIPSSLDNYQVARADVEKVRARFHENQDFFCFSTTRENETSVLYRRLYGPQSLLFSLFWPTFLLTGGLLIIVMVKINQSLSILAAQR

| Compound | state of the ion channel (current trace) ([1]; CaCl2 1 mM) | state of the ion channel (current trace) ([1]; CaCl2 10^-9 M) | channel activity (current trace after addition) [2] |
| --- | --- | --- | --- |
| [Ca+2].[Cl-].[Cl-] [CaCl2] | more likely to open | closed |  |
| ryanodine |  |  | activation of the ryanodine receptor channel occurs |

— patent US7408359B2, “Current measuring device having artificial lipid bilayer membrane” (Japan Science and Technology Agency, priority 2003, dated 2008)
